Assay results as given in patent publication US20040010001A1, “Methods and compositions for modulating cell proliferation and cell death” (priority 1999, published 2004).
Where two headings read alike, the source gives them in different places.

Test system: Human prostate PC3 tumor cells
Assay: aFGF/bFGF-induced resistance and reversal by suramin, sulforhodamine B assay
Type: cell-based
Description: The experimental conditions are described briefly below. […] Cell number was measured using the sulforhodamine B assay which measures the total protein concentration. […] The FGF-induced resistance was dependent on the FGF concentrations, with a higher resistance at higher FGF concentrations.

[1] = Homo sapiens, read-out: IC50, Control (drug treatment only, without FGF treatment), No suramin, drug 96 hours
[2] = Homo sapiens, read-out: IC50, aFGF 0.3 ng/ml + bFGF 1 ng/ml, No suramin, FGF pretreatment 96 hours, drug 96 hours
[3] = Homo sapiens, read-out: IC50, aFGF 1 ng/ml + bFGF 3 ng/ml, No suramin, FGF pretreatment 96 hours, drug 96 hours
[4] = no suramin, relative to control
[5] = read-out: IC50, Control (without FGF treatment), Suramin, 15 μM, drug 96 hours with 15 μM suramin
[6] = read-out: IC50, aFGF 0.3 ng/ml + bFGF 1 ng/ml, With suramin, FGF pretreatment 96 hours, drug 96 hours with 15 micromolar suramin
[7] = read-out: IC50, aFGF 1 ng/ml + bFGF 3 ng/ml, With suramin, FGF pretreatment 96 hours, drug 96 hours with 15 micromolar suramin

Compound	IC50 [1]	IC50 [2]	IC50 [3]	Resistance, Folds, aFGF 0.3 ng/ml + bFGF 1 ng/ml [4]	Resistance, Folds, aFGF 1 ng/ml + bFGF 3 ng/ml [4]	IC50 [5]	IC50 [6]	IC50 [7]	Resistance, Folds, aFGF 0.3 ng/ml + bFGF 1 ng/ml	Resistance, Folds, aFGF 1 ng/ml + bFGF 3 ng/ml	IC50 (Homo sapiens, 96 h, read-out: IC50, Control (drug treatment only, without FGF treatment), No suramin)	IC50 (Homo sapiens, 96 h, read-out: IC50, aFGF 0.3 ng/ml + bFGF 1 ng/ml, No suramin)	IC50 (Homo sapiens, 96 h, read-out: IC50, aFGF 1 ng/ml + bFGF 3 ng/ml, No suramin)	IC50 (read-out: IC50, Control (without FGF treatment), Suramin, 15 μM)	IC50 (read-out: IC50, aFGF 0.3 ng/ml + bFGF 1 ng/ml, With suramin)	IC50 (read-out: IC50, aFGF 1 ng/ml + bFGF 3 ng/ml, With suramin)
O=C(O)CCCc1ccc(N(CCCl)CCCl)cc1 [Chlorambucil]	31.9 µM	53.5 µM	88.3 µM	1.67 Folds	2.77 Folds	33.1 µM	44.4 µM	37.6 µM								
O=C1c2c(O)ccc(O)c2C(=O)c2c(NCCNCCO)ccc(NCCNCCO)c21 [Mitoxantrone]	0.18 µM	0.33 µM	0.53 µM	1.83 Folds	2.94 Folds	0.16 µM										
CN(Cc1cnc2nc(N)nc(N)c2n1)c1ccc(C(=O)N[C@@H](CCC(=O)O)C(=O)O)cc1 [Methotrexate]	32.1 µM	60.6 µM	80.5 µM	1.89 Folds	2.51 Folds	28.8 µM	30.6 µM	33.7 µM								
Nc1ccn([C@@H]2O[C@H](CO)[C@@H](O)C2(F)F)c(=O)n1 [Gemcitabine]	0.00684 µM	0.00961 µM	0.0131 µM	1.41 Folds	1.91 Folds	0.00695 µM	0.00612 µM	0.00599 µM								
Nc1ncn([C@H]2C[C@H](O)[C@@H](CO)O2)c(=O)n1 [5-Aza 2′-deoxycytidine]	6.63 µM	14 µM	26.3 µM	2.12 Folds	3.96 Folds	6.14 µM	6.54 µM	6.39 µM								
CS(=O)(=O)OCCCCOS(C)(=O)=O [Busulfan]	86.2 µM			1.14 Folds	1.48 Folds	89.2 µM										
O=C(O)CC(NC(=O)CP(=O)(O)O)C(=O)O [PALA, N-Phosphoracetyl-L-Asparate]									1.06 Folds	1.21 Folds	241 µM	255 µM	292 µM	249 µM	236 µM	201 µM
